Active and inactive are the calls of the source. The rule behind the calls is not given here.
experiment: TIM10 isogenic strain growth inhibitors – luminescence, S. cerevisiae, counter-screen for tim23-1 inhibitor project, SAR follow-up (AID 602380); settings: S. cerevisiae TIM10 isogenic control strain, BacTiter-Glo growth luminescence

Structure (SMILES) | IC50
O=S(=O)(Nc1ccc(-c2cn3c(n2)SCC3)cc1)c1cccnc1 | > 99 µM (inactive)
O=C(NN=C/C=C\c1ccco1)c1cccs1 | 4.48 µM
O=c1cc(CSc2ccc(S(=O)(=O)N3CCOCC3)cn2)nc2ccc(Br)cn12 | 42.9 µM
Cc1nc2scc(C)n2c(=O)c1S(=O)(=O)Nc1ccc(N2CCOCC2)c(Cl)c1 | > 99 µM (inactive)
Cc1ccc(Nc2nc(-c3cccnc3)nc3ccccc23)cc1 | 4.04 µM
Cc1cc(OCC(=O)O/N=C(\N)Cc2ccc(Cl)cc2)ccc1Br | 2.1 µM
COc1ccc(/C(N)=N/OC(=O)c2ccc(C(F)(F)F)cc2)c(OC)c1 | 72.7 µM
N/C(=N\OC(=O)c1ccc2ncsc2c1)c1ccc(Cl)cc1Cl | 2.57 µM
CN1CCc2nc3sc(C(=O)C45CC6CC(CC(C6)C4)C5)c(N)c3cc2C1 | 42.1 µM
Cc1noc(C)c1S(=O)(=O)Nc1ccc(-c2cn3c(n2)SCC3)cc1 | 79.2 µM
COc1cc2c(cc1OC)/C(=C/c1ccc(Cl)cc1)C(=O)OC2 | 2.61 µM
CCOc1cc2ccccc2cc1C(=O)O/N=C(\N)c1ccc(Cl)cc1 | 2.42 µM
N#Cc1ccc(C2N=C(c3ccccc3)NO2)cc1 (centres undefined) | > 99 µM (inactive)
Cc1ccc2nc(N3C(=O)CNC3=S)sc2c1 | 6.81 µM
CC(C)(C)c1csc(NC(=O)c2ccc(Cl)s2)n1 | 9.68 µM
CCCCOc1ccc(C(=O)O/N=C(\N)c2cccc(Br)c2)cc1 | 20.8 µM
Cc1nc2scc(C)n2c(=O)c1S(=O)(=O)Nc1ccc(Cl)c(C(F)(F)F)c1 | 91.1 µM
N/C(=N\OC(=O)c1ccc(Cl)cc1)c1cccc(CS(=O)(=O)c2ccccn2)c1 | 19.2 µM
Cn1c(SCc2cccc(/C(N)=N/OC(=O)c3ccc(Cl)cc3)c2)nnc1C(F)(F)F | 3.59 µM
N/C(=N\OC(=O)c1ccc(Cl)c(Cl)c1)c1cccc(CS(=O)(=O)c2ccccn2)c1 | 15.6 µM
O=C(CSCc1ccccc1)Nc1cc(S(=O)(=O)N2CCOCC2)ccc1Oc1ccccc1 | > 99 µM (inactive)
NC(=O)C1CCN(c2nc(-c3cccnc3)nc3ccccc23)CC1 | > 99 µM (inactive)
Cc1c2c(n(Cc3ccco3)c1C)N=CN1CCS(=O)(=O)N=C21 | 48.5 µM
Cc1cccn2c(=O)cc(CSc3cc(C(=O)NC4CC4)c4ccccc4n3)nc12 | > 99 µM (inactive)
N/C(=N\OC(=O)c1ccc2ncsc2c1)c1ccccc1 | 9.17 µM
N#Cc1c(-c2ccc([N+](=O)[O-])cc2)cc(-c2ccccc2)nc1N | > 99 µM (inactive)
CC(C)Cn1cnc2c(c(-c3ccccc3)c(-c3ccccc3)n2Cc2ccco2)c1=N | 34.3 µM

Structure (SMILES) | IC50
Cc1nc2scc(C)n2c(=O)c1S(=O)(=O)Nc1ccc(N2CCN(C(=O)C(C)C)CC2)cc1 | > 99 µM (inactive)
O=C(Nc1ccn[nH]1)c1ccc(Br)cc1Cl | > 99 µM (inactive)
C(/C=C/c1ccccc1)=NNc1nc2ccccc2[nH]1 | 8.98 µM
CCN(C(=O)c1cccc2ncccc12)c1c(N)n(Cc2ccccc2)c(=O)[nH]c1=O | > 99 µM (inactive)
Cc1nn(Cc2cccc(C(=O)O/N=C(\N)c3ccc(Cl)cc3)c2)c(C)c1Br | 1.7 µM
O=c1cc(C(F)F)oc2c1ccc1ccccc12 | > 99 µM (inactive)
Cc1nc2scc(C)n2c(=O)c1S(=O)(=O)Nc1cccc(C(F)(F)F)c1 | 35.6 µM
Cc1nc2scc(C)n2c(=O)c1S(=O)(=O)Nc1ccc(CN2CCCCC2)cc1 | > 99 µM (inactive)
N=c1c2c(-c3ccccc3)c(-c3ccccc3)n(Cc3ccco3)c2ncn1CCCN1CCOCC1 | > 99 µM (inactive)
N/C(=N\OC(=O)c1cccc2ccccc12)c1ccc(Cl)cc1 | 0.781 µM
N/C(=N\OC(=O)c1ccccc1)c1ccc(F)cc1F | 16.7 µM
N/C(=N\OC(=O)c1ccc(F)cc1)c1ccc(Br)cc1 | 39.8 µM
O=C(Nc1nc2ccccc2s1)C1CCCN1S(=O)(=O)c1ccc(Cl)cc1 (centres undefined) | 6.26 µM
N#Cc1c(-c2ccccc2)cc(-c2ccc(O)cc2)nc1N | 4.52 µM
CN(C(=O)c1cccc(S(C)(=O)=O)c1)c1c(N)n(Cc2ccccc2)c(=O)[nH]c1=O | > 99 µM (inactive)
O=C(Nc1ccc(-c2cn3ccccc3n2)cc1)c1cccs1 | 7.93 µM
Cc1nc2scc(C)n2c(=O)c1S(=O)(=O)Nc1ccc(F)cc1Cl | 68.1 µM
Cc1ccc(/C(N)=N/OC(=O)c2ccccc2)cc1F | 1.37 µM
O=C(N/N=C/C(Cl)=C\c1ccccc1)c1cccs1 | 9.48 µM
N/C(=N\OC(=O)c1ccc(Cl)cc1)c1ccc(S(=O)(=O)N2CCOCC2)cc1 | 4.81 µM
Cc1nc2scc(C)n2c(=O)c1S(=O)(=O)Nc1ccc(Oc2ccc(Cl)cc2)cc1 | > 99 µM (inactive)
Cc1nc(SCc2cc(=O)n3cc(Br)ccc3n2)c(C#N)c(C)c1C | > 99 µM (inactive)
CCN1CCc2nc3sc(C(=O)Nc4cc(Cl)ccc4OC)c(N)c3cc2C1 | > 99 µM (inactive)
Cc1nc2sc(C)c(C)n2c(=O)c1S(=O)(=O)Nc1ccc(Br)cc1 | > 99 µM (inactive)
Nc1cccc(Oc2ccc(Oc3cccc(N)c3)cc2)c1 | > 99 µM (inactive)
Cc1nc2scc(C)n2c(=O)c1S(=O)(=O)Nc1cc(C(F)(F)F)ccc1Cl | 79.2 µM
C=C1CCc2c([nH]c3ccc(OCC(C)C)cc23)C1=O | 1.59 µM

Structure (SMILES) | IC50
N#C/C(=C\c1ccc(Cl)cc1)C(=O)Nc1cccnc1 | 14.2 µM
Oc1ccc(Oc2ccc(Oc3ccc(O)cc3)cc2)cc1 | 5.69 µM
CCn1c(N2CCN(S(=O)(=O)c3ccc(OC)cc3)CC2)nc2ccccc21 | 15.8 µM
Cc1ccc2nc(CSc3ncc(C(F)(F)F)cc3Cl)cc(=O)n2c1 | > 99 µM (inactive)
Cc1ccc(C2=NNC(c3ccc(Cl)cc3Cl)S2)cc1 (centres undefined) | 5.15 µM
Cc1ccc(OCC(=O)O/N=C(\N)Cc2ccc(Cl)cc2)cc1 | 20.4 µM
O=C1OC(c2ccccc2)=N/C1=C\C=C\c1ccco1 | 6.78 µM
O=C(CSc1cccc[n+]1[O-])Nc1ccccc1Oc1ccccc1 | 0.806 µM
Cc1nc2scc(C)n2c(=O)c1S(=O)(=O)Nc1ccc(OC(F)(F)F)cc1 | 21.6 µM
CN1CCN(c2nc(-c3cccnc3)nc3ccccc23)CC1 | > 99 µM (inactive)
CCOc1ccc(C(=O)O/N=C(\N)c2ccc(OC)cc2)cc1OCC | 5.57 µM
N/C(=N\OC(=O)c1ccc(Cl)cc1)c1ccc(-c2csnn2)cc1 | > 99 µM (inactive)
COc1ccc(/C=C/C(=O)Nc2ccc3c(c2)CCC3)cc1OC | 11.2 µM
Cc1ccc(-c2cc(NC(=O)c3c(C)noc3C)nc(-c3ccccc3)c2)cc1 | > 99 µM (inactive)
CCCN(C(=O)c1ccc([N+](=O)[O-])c(C)c1)c1c(N)n(Cc2ccccc2)c(=O)[nH]c1=O | > 99 µM (inactive)
Cc1nc2scc(C)n2c(=O)c1S(=O)(=O)Nc1ccc(N2CCOCC2)cc1 | > 99 µM (inactive)
O=C(O)c1cccnc1SCc1cc(=O)n2cc(Br)ccc2n1 | > 99 µM (inactive)
COc1ccc([N+](=O)[O-])cc1NS(=O)(=O)c1c(C)nc2scc(C)n2c1=O | > 99 µM (inactive)
CS(=O)(=O)Nc1ccc(/C(N)=N/OC(=O)c2ccccc2Cl)cc1 | 66.4 µM
Cc1ccc2nc(N3CCN(S(=O)(=O)C4CC4)CC3)[nH]c2c1 | 49.4 µM
Cc1ccc2nc(CS(=O)(=O)c3ncccc3Cl)cc(=O)n2c1 | > 99 µM (inactive)
Cc1nc2scc(C)n2c(=O)c1S(=O)(=O)Nc1ccc2c(c1)OCCO2 | 80.5 µM
Cc1nc2scc(C)n2c(=O)c1S(=O)(=O)Nc1ccc(N2CCN(S(C)(=O)=O)CC2)cc1 | > 99 µM (inactive)
O=C(Nc1ccc2nc(-c3ccc(Br)o3)[nH]c2c1)c1cccs1 | 30.9 µM
Cc1ccc(S(=O)(=O)Cc2cc(=O)n3ccccc3n2)nc1 | > 99 µM (inactive)

Source: PubChem BioAssay AID602380 (Sanford-Burnham Center for Chemical Genomics, 2012)
